ChEMBL document CHEMBL1201862, “PubChem BioAssay data set” (2004)
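Dose response: 5 concentrations. Exposure: 48 h. Format: 96-well plates. Endpoint: linear interpolation; highest concentration if not reached. GI50: concentration for 50% inhibition of growth.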 Active and inactive are the calls of the source. Cut-off read from the data, not from the text of the source: active = GI50 up to about 1.1 µM and inactive = higher.

How the values were obtained:
Assay in all cases: DTP human tumour cell line panel, 48 h
HOP-62 = tested on: HOP-62
HOP-92 = tested on: HOP-92
SF-539 = tested on: SF-539
NCI-H522 = tested on: NCI-H522
UO-31 = tested on: UO-31
U-251 = tested on: U-251
TK-10 = tested on: TK-10
SF-268 = tested on: SF-268
HCT-15 = tested on: HCT-15
SK-MEL-2 = tested on: SK-MEL-2
LXFL 529 = tested on: LXFL 529
SR = tested on: SR
IGROV-1 = tested on: IGROV-1
DMS-114 = tested on: DMS-114
DMS-273 = tested on: DMS-273
SK-MEL-5 = tested on: SK-MEL-5
SW-620 = tested on: SW-620
UACC-257 = tested on: UACC-257
SK-MEL-28 = tested on: SK-MEL-28
SF-295 = tested on: SF-295
KM-20L2 = tested on: KM-20L2
OVCAR-3 = tested on: OVCAR-3
MOLT-4 = tested on: MOLT-4
HT-29 = tested on: HT-29
NCI-H460 = tested on: NCI-H460
SNB-19 = tested on: SNB-19
CCRF-CEM = tested on: CCRF-CEM
ACHN = tested on: ACHN
COLO 205 = tested on: COLO 205
OVCAR-8 = tested on: OVCAR-8
SNB-78 = tested on: SNB-78
EKVX = tested on: EKVX
UACC-62 = tested on: UACC-62
OVCAR-5 = tested on: OVCAR-5
CAKI-1 = tested on: CAKI-1
OVCAR-4 = tested on: OVCAR-4
RPMI-8226 = tested on: RPMI-8226
DLD-1 = tested on: DLD-1
Malme-3M = tested on: Malme-3M
HCT-116 = tested on: HCT-116
NCI-H23 = tested on: NCI-H23
SN12C = tested on: SN12C
SK-OV-3 = tested on: SK-OV-3
M14 = tested on: M14
HCC 2998 = tested on: HCC 2998
KM12 = tested on: KM12
SNB-75 = tested on: SNB-75
K562 = tested on: K562
A549 = tested on: A549
HL-60 = tested on: HL-60
A498 = tested on: A498
MCF7 = tested on: MCF7
M19-MEL = tested on: M19-MEL
HOP-18 = tested on: HOP-18

Q: With `CC12CCC(=O)N1c1cnccc1N2` (stereo not drawn) as the molecule, how does the GI50 (HOP-62) read?
A: > 100 µM (inactive)

Q: What about the GI50 (HOP-92) of the same molecule?
A: > 100 µM (inactive)

Q: What about the GI50 (SF-539) of the same molecule?
A: > 100 µM (inactive)

Q: And the GI50 (NCI-H522)?
A: > 100 µM (inactive)

Q: What about the GI50 (UO-31) of the same molecule?
A: > 100 µM (inactive)

Q: What about the GI50 (U-251) of the same molecule?
A: > 100 µM (inactive)

Q: And the GI50 (TK-10)?
A: > 100 µM (inactive)

Q: What about the GI50 (SF-268) of the same molecule?
A: > 100 µM (inactive)

Q: And the GI50 (HCT-15)?
A: > 100 µM

Q: And the GI50 (SK-MEL-2)?
A: > 100 µM (inactive)

Q: And the GI50 (LXFL 529)?
A: > 100 µM (inactive)

Q: What about the GI50 (SR) of the same molecule?
A: > 100 µM (inactive)

Q: What about the GI50 (IGROV-1) of the same molecule?
A: > 100 µM (inactive)

Q: And the GI50 (DMS-114)?
A: > 100 µM (inactive)

Q: What about the GI50 (DMS-273) of the same molecule?
A: > 100 µM (inactive)

Q: And the GI50 (SK-MEL-5)?
A: > 100 µM (inactive)

Q: What about the GI50 (SW-620) of the same molecule?
A: > 100 µM (inactive)

Q: And the GI50 (UACC-257)?
A: > 100 µM (inactive)

Q: What about the GI50 (SK-MEL-28) of the same molecule?
A: > 100 µM (inactive)

Q: What about the GI50 (SF-295) of the same molecule?
A: > 100 µM (inactive)

Q: And the GI50 (KM-20L2)?
A: > 100 µM (inactive)

Q: What about the GI50 (OVCAR-3) of the same molecule?
A: > 100 µM (inactive)

Q: And the GI50 (MOLT-4)?
A: > 100 µM (inactive)

Q: What about the GI50 (HT-29) of the same molecule?
A: > 100 µM (inactive)

Q: What about the GI50 (NCI-H460) of the same molecule?
A: > 100 µM (inactive)

Q: And the GI50 (SNB-19)?
A: > 100 µM (inactive)

Q: And the GI50 (CCRF-CEM)?
A: > 100 µM (inactive)

Q: And the GI50 (ACHN)?
A: > 100 µM (inactive)

Q: What about the GI50 (COLO 205) of the same molecule?
A: > 100 µM (inactive)

Q: And the GI50 (OVCAR-8)?
A: > 100 µM (inactive)

Q: What about the GI50 (SNB-78) of the same molecule?
A: > 100 µM (inactive)

Q: And the GI50 (EKVX)?
A: > 100 µM (inactive)

Q: What about the GI50 (UACC-62) of the same molecule?
A: > 100 µM (inactive)

Q: What about the GI50 (OVCAR-5) of the same molecule?
A: > 100 µM (inactive)

Q: What about the GI50 (CAKI-1) of the same molecule?
A: > 100 µM (inactive)

Q: What about the GI50 (OVCAR-4) of the same molecule?
A: > 100 µM (inactive)

Q: And the GI50 (RPMI-8226)?
A: > 100 µM (inactive)

Q: And the GI50 (DLD-1)?
A: > 100 µM (inactive)

Q: What about the GI50 (Malme-3M) of the same molecule?
A: > 100 µM (inactive)

Q: And the GI50 (HCT-116)?
A: > 100 µM (inactive)

Q: What about the GI50 (NCI-H23) of the same molecule?
A: > 100 µM (inactive)

Q: And the GI50 (SN12C)?
A: > 100 µM (inactive)

Q: And the GI50 (SK-OV-3)?
A: > 100 µM (inactive)

Q: What about the GI50 (M14) of the same molecule?
A: > 100 µM (inactive)

Q: What about the GI50 (HCC 2998) of the same molecule?
A: > 100 µM (inactive)

Q: And the GI50 (KM12)?
A: > 100 µM (inactive)

Q: And the GI50 (SNB-75)?
A: > 100 µM (inactive)

Q: What about the GI50 (K562) of the same molecule?
A: > 100 µM (inactive)

Q: And the GI50 (A549)?
A: > 100 µM (inactive)

Q: And the GI50 (HL-60)?
A: > 100 µM (inactive)

Q: And the GI50 (A498)?
A: > 100 µM (inactive)

Q: With `C[C@]12CC[C@@H]3c4ccc(OC(=O)N(CCCl)CCCl)cc4CC[C@H]3[C@@H]1CC[C@@H]2O` [ESTRAMUSTINE] as the molecule, how does the GI50 (HOP-62) read?
A: 0.025 µM (active)

Q: What about the GI50 (HOP-92) of the same molecule?
A: 0.025 µM (active)

Q: What about the GI50 (MCF7) of the same molecule?
A: 0.025 µM (active)

Q: What about the GI50 (M19-MEL) of the same molecule?
A: 0.025 µM (active)

Q: What about the GI50 (U-251) of the same molecule?
A: 1.78 µM (inactive)

Q: And the GI50 (SF-268)?
A: 0.025 µM (active)

Q: What about the GI50 (HCT-15) of the same molecule?
A: 0.025 µM

Q: What about the GI50 (IGROV-1) of the same molecule?
A: 0.025 µM (active)

Q: And the GI50 (DMS-273)?
A: 2.5 µM (inactive)

Q: And the GI50 (SW-620)?
A: 0.025 µM (active)

Q: And the GI50 (HOP-18)?
A: 6.04 µM (inactive)

Q: What about the GI50 (SK-MEL-28) of the same molecule?
A: 0.025 µM (active)

Q: And the GI50 (HT-29)?
A: 0.025 µM (active)

Q: And the GI50 (SNB-19)?
A: 0.025 µM (active)

Q: And the GI50 (CCRF-CEM)?
A: 0.025 µM (active)

Q: What about the GI50 (OVCAR-8) of the same molecule?
A: 0.025 µM (active)

Q: And the GI50 (SNB-78)?
A: 0.025 µM (active)

Q: What about the GI50 (EKVX) of the same molecule?
A: 0.025 µM (active)

Q: What about the GI50 (OVCAR-5) of the same molecule?
A: 0.025 µM (active)

Q: What about the GI50 (CAKI-1) of the same molecule?
A: 0.025 µM (active)

Q: What about the GI50 (DLD-1) of the same molecule?
A: 0.025 µM (active)

Q: What about the GI50 (NCI-H23) of the same molecule?
A: 0.025 µM (active)

Q: And the GI50 (SN12C)?
A: 0.025 µM (active)

Q: What about the GI50 (SK-OV-3) of the same molecule?
A: 0.025 µM (active)

Q: And the GI50 (K562)?
A: 0.025 µM (active)

Q: And the GI50 (A549)?
A: 0.025 µM (active)

Q: And the GI50 (HL-60)?
A: 0.025 µM (active)
